Results from patent publication US20200080157A1, “PROGNOSIS AND TREATMENT OF RELAPSING LEUKEMIA” (McMaster University, priority 2018, published 2020).

Legend:
[1] = test system: human AML leukemia initiating cells (LSCs); test: Serial transplantation (limiting dilution) leukemia-initiating cell / LSC assay in secondary recipient mice; assay type: in vivo, human AML cells in NOD/SCID or NSG mice
Description: The threshold for engraftment detection was set at ≥0.1% human chimerism.

[2] = Treatment-related mortality on AraC dose intensification in AML-xenografted mice; assay type: in vivo, mouse; settings: AraC 100 mg/kg, 5 consecutive days
Description: This more aggressive regime produced unacceptable treatment-related mortality rates of 60%, which was not balanced by any therapeutic benefit in the few mice that survived.

[3] = test system: human AML cells; test: Flow cytometry of CD34/CD38 and LRC marker proteins (DRD2, SLC2A2, FASLG, FUT3) in human AML cells from xenograft BM; assay type: in vivo, human AML cells in mice
Method: Immunophenotyping for human hematopoietic cell surface markers was carried out using the following antibodies: V450-conjugated anti-CD45 (1:100; 2D1), APC-conjugated anti-CD33 (1:300; WM-33), PE-conjugated anti-CD34 (1:200; 581), FITC- or PE-conjugated anti-CD38 (1:100 or 1:500; HB7), FITC-conjugated anti-CD19 (1:100; HIB19), and APC-conjugated anti-CD3 (1:100; UCHT1; all from BD). In order to evaluate candidates from the LRC gene signature at the protein level, gene targets were identified with available commercial antibodies that had been validated for flow cytometry. Directly conjugated antibodies were used to detect human SLC2A2 (Alexa fluor 488-conjugated; 1:100; 199017; Novus Biologicals) and FASLG (FITC-conjugated; 1:100; SB93A; Thermo Fisher). Additionally, mouse anti-human primary antibodies that recognize human DRD2 (1:100; B-10; Santa Cruz) or FUT3 (1:100, F3, Thermo Fisher) were used, followed by incubation with an Alexa fluor 647- or 555-conjugated donkey anti-mouse secondary antibody ([…]; Thermo Fisher). In these cases of indirect staining, cells were first blocked with donkey serum (Jackson ImmunoResearch Laboratories) plus human FC block (eBioscience). […] When appropriate, fluorescence minus one and secondary antibody controls were used to optimize gating strategies for target cell populations. […]

[4] = test system: healthy human hematopoietic cells (CD45+); test: Healthy human hematopoietic chimerism and growth rate in xenografted mice; settings: healthy human grafts in mice
[5] = test system: human AML cells (CD45+CD33+); test: Leukemic chimerism and growth rate in BM of AML-xenografted mice (FACS, serial BM aspirates); settings: for Leukemic chimerism levels following DRD2 antagonist therapy: mean ± SEM
[6] = test system: human AML progenitors; test: CFU (methylcellulose) progenitor assay of human AML cells purified from treated xenograft BM

For `Nc1ccn([C@@H]2O[C@H](CO)[C@@H](O)[C@@H]2O)c(=O)n1` [AraC, Cytarabine], which “functional LSCs (serial LIC transplantation)” value ([1]; AML xenografts, 48 hr after final AraC dose) is on record?
The value was “suppressed”.

And the “#Engrafted mice” value ([1]; AML#2, +AraC, cell dose 1 × 10^6, cells transplanted 48 hr after final AraC dose)?
The value was 0/4.

And the “#Engrafted mice” value ([1]; AML#2, +AraC, cell dose 2 × 10^5, cells transplanted 48 hr after final AraC dose)?
The value was 0/4.

And the “#Engrafted mice” value ([1]; AML#3, +AraC, cell dose 2 × 10^5, cells transplanted 48 hr after final AraC dose)?
Its value is 1/4.

And the “#Engrafted mice” value ([1]; AML#3, +AraC, cell dose 3 × 10^4, cells transplanted 48 hr after final AraC dose)?
The value was 0/3.

What about the treatment-related mortality rate [2] of the same compound?
Its treatment-related mortality rate is 60%.

And the “frequencies of primitive CD34+ and CD34+CD38− cells within residual AML populations” value ([3]; AraC 5 consecutive days, xenograft BM 24-72 hr after final dose)?
The value was “strongly reduced”.

What about the “re-growth rates of healthy human hematopoiesis after AraC cytoreduction” value [4] of the same compound?
Its value is “rates matching those of vehicle-treated controls”.

What about the “recipient mice with persisting residual disease” value ([5]; AML patient #13 xenografts, AraC alone, 9 days after final AraC dose) of the same compound?
Its value is 50%.

And the “leukemic growth after AraC vs vehicle-treated controls” value ([5]; AML xenografts, kinetic modeling of serial BM aspirates)?
The value was “accelerated leukemic growth”.

And the “functional progenitors in residual leukemic populations (CFU)” value ([6]; AML xenografts, 48 hr after AraC withdrawal)?
The value was “depleted”.

Which results are given for `CSc1ccc2c(c1)N(CCC1CCCCN1C)c1ccccc1S2` (stereo not shown) [DRD2 antagonist, thioridazine]?
LIC content of therapy-naïve AML ([1]; DRD2 antagonist single agent, AML #5, serial transplantation): did not impact; LIC activity of AraC-exposed LRCs ([1]; DRD2 antagonist together with AraC, AML #5, serial transplantation 9 days post-AraC): complete loss of LIC activity; disease regeneration potential (secondary LIC assays and progenitor assays) ([1]; DRD2 antagonist with AraC, three additional AML patient samples): reproducibly blocked; DRD2 protein expression in human leukemic cells from xenograft BM ([3]; DRD2 antagonist with AraC, LRC stage): loss of DRD2 protein expression; time to overt relapse ([5]; AML #3 xenografts, AraC plus DRD2 antagonist vs AraC alone, relapse set at 20% leukemic chimerism, estimated from growth rates): nearly doubled; Leukemic chimerism levels following DRD2 antagonist therapy ([5]; AML #5, LRCs (in combination with AraC)): 1.4 ± 0.3; Leukemic chimerism levels following DRD2 antagonist therapy ([5]; AML #5, Therapy-naive (single agent, no AraC)): 12.4 ± 2.2; Leukemic chimerism levels following DRD2 antagonist therapy ([5]; AML #10, LRCs (in combination with AraC)): 16.9 ± 8.7; Leukemic chimerism levels following DRD2 antagonist therapy ([5]; AML #11, LRCs (in combination with AraC)): 1.4 ± 1.4; leukemic growth rates after AraC ([5]; AML Patient #3 xenografts, DRD2 antagonist plus AraC vs AraC alone): successfully disrupted; recipients achieving disease-free status ([5]; AML patient #13 xenografts, DRD2 antagonist added to AraC): 100%; overall cytoreductive activity of AraC (leukemic chimerism) ([5]; in vivo delivery of DRD2 antagonist with AraC): did not improve; effect on progenitors of regenerating LRCs (CFU) ([6]; DRD2 antagonist in combination with AraC, 9 days after last AraC dose): profound effects; effect on AML progenitors arising from therapy-naive LSCs (CFU) ([6]; DRD2 antagonist single agent, 21-day regimen, AML xenografts): moderately affected
